Experimental findings from patent publication US20210038607A1, “OXADIAZOLYLTHIOPHENE DERIVATIVES USEFUL AS HISTONE DEACETYLASE INHIBITORS” (Karus Therapeutics Limited, priority 2018, published 2021) are described below.

Each structure is given as a SMILES string. Where two headings read alike, the source gives them in different places.

A word on the IC50: it is the point on the concentration scale where inhibition reaches its midpoint.

One test concerns the target T1, Human HDAC4 (Homo sapiens, UniProt P56524).
T1 construct: amino acids 627-1085 with N-terminal GST tag; GST (N); host or cells: baculovirus expression system
Briefly: HDAC4 biochemical assay, class IIa-specific substrate. The note with it: read-out: HDAC Isoform IC50 (nM) 4. The essentials:
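Two-step fluorogenic read-out: deacetylated BOC-Lys(trifluoroacetyl)-AMC (50 μM) was digested by developer and measured at Ex/Em 360/460. Deacetylation by 0.004 ng/ul HDAC4 (aa 627-1085, N-terminal GST) ran 30 min at room temperature, pH 8.0 Tris buffer, 1 mg/mL BSA, 1% DMSO.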

The target in test [1] is T2, Complex of human HDAC3 and human NCOR2 (Homo sapiens, UniProt O15379).
T2 construct: full length with C-terminal His tag, MW=49.7 kDa; His (C); host or cells: baculovirus expression system (co-expressed)
Briefly: HDAC3 biochemical assay, AMC-labeled peptide substrate. The note with it: read-out: HDAC Isoform IC50 (nM) 3. The method, then:
Activity against all zinc-dependent HDACs 1 to 11 was assessed by using an acetylated AMC-labeled peptide substrate. The substrate RHKK(Ac)AMC was used for HDAC1, HDAC2, HDAC3, HDAC6 and HDAC10; the substrate used for HDAC8 was RHK(Ac)K(Ac)AMC. Activity against the class IIa HDACs (HDAC4, 5, 7, 9) and HDAC11 was determined using a class IIa-specific substrate, BOC-Lys(trifluoroacetyl)-AMC (“Trifluoroacetyl Lysine”; see Lahm et al, 2007, PNAS, 104, 17335-17340). All assays were based on the AMC-labeled substrate and developer combination.
The protocol involved a two-step reaction: first, the substrate with the acetylated lysine side chain is incubated with a sample containing HDAC activity, to produce the deacetylated products, which are then digested in the second step by the addition of developer to produce the fluorescent signal proportional to the amount of deacetylated substrates.
Complex of human HDAC3 (GenBank Accession No. NM_003883), full length with C-terminal His tag, MW=49.7 kDa, and human NCOR2 (amino acid 395-489) (GenBank Accession No. NM_006312), N-terminal GST tag, MW=37.6 kDa, co-expressed in baculovirus expression system.
Assay Buffer: 50 mM Tris-HCl, pH8.0, 137 mM NaCl, 2.7 mM KCl, 1 mM MgC2. Before use, 1 mg/mL BSA and DMSO are added.
HDAC3: 0.1 ng/ul HDAC3 and 50 μM HDAC substrate are in the reaction buffer with 1% DMSO final. Incubate for 1 hour at 30° C.
Stage 1: Deacetylation of substrate by incubation of HDAC enzymes with compounds
Stage 2: Development by addition of Developer to digest the deacetylated substrate, and generate the fluorescent colour; Detection: 360/460 Ex/Em

The target in another test is T3, Human HDAC9 (Homo sapiens, UniProt Q9UKV0).
T3 construct: amino acids 604-1066 with C-terminal His tag; His (C); host or cells: baculovirus expression system
Put plainly: HDAC9 biochemical assay, class IIa-specific substrate. The note with it: read-out: HDAC Isoform IC50 (nM) 9. The essentials: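 HDAC9 residues 604-1066 (C-terminal His tag, baculovirus-expressed) at 0.06 ng/ul with 50 μM class IIa substrate Boc-Lys(trifluoroacetyl)-AMC in Tris-HCl pH 8.0 buffer with BSA and 1% DMSO. 30 min at room temperature, then developer added; fluorescence read at 360/460 nm Ex/Em.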

The next test has as its target T4, Recombinant human HDAC6 (Homo sapiens, UniProt Q9UBN7).
T4 construct: full length, MW=159 kDa; GST (N); host or cells: Sf9 insect cells (baculovirus)
T4 sequence (Q9UBN7 1-1215): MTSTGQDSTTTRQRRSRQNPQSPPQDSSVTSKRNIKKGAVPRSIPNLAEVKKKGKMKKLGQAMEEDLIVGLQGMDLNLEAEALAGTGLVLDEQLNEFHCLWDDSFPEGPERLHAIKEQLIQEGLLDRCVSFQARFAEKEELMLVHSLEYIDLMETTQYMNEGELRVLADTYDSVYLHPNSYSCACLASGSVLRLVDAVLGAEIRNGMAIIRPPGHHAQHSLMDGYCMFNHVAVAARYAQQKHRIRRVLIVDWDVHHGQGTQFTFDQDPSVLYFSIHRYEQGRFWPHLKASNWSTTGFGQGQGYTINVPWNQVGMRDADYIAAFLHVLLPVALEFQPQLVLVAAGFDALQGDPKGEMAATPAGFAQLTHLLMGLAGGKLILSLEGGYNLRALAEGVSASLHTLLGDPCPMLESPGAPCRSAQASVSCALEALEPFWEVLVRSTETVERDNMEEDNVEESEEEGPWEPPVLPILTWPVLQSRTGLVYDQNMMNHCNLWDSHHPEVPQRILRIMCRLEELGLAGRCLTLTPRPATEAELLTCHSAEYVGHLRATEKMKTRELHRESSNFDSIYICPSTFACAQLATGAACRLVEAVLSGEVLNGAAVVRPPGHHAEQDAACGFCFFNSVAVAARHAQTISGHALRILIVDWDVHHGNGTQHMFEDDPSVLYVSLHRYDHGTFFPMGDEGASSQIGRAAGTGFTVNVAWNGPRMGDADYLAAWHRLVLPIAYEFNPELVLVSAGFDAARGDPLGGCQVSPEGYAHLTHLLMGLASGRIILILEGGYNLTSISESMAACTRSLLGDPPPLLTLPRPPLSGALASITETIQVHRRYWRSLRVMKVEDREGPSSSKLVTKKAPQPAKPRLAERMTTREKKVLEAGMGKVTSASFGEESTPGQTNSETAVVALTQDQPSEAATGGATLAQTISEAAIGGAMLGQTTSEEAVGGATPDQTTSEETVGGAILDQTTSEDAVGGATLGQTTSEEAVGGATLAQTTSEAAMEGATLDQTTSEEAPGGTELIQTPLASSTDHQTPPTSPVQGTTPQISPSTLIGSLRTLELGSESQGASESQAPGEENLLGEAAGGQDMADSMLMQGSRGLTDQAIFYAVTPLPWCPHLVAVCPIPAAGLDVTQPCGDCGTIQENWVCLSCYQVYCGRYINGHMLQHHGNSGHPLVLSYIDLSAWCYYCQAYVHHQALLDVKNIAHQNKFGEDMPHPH
Briefly: HDAC6 biochemical assay, AMC-labeled peptide substrate. The method in brief: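 Two-step fluorogenic read-out: enzyme deacetylates 50 μM RHKK(Ac)AMC for 1 h at 30° C in pH 8.0 Tris buffer with BSA and 1% DMSO, then developer cleavage gives signal at Ex 360/Em 460. Enzyme: 0.3 ng/ul recombinant full-length human HDAC6, GST-tagged, Sf9-expressed.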

The mark [2] stands for this setting: HDAC6, read-out: HDAC Isoform IC50 (nM) 6.

T1 sequence (P56524 627-1084 limits assumed): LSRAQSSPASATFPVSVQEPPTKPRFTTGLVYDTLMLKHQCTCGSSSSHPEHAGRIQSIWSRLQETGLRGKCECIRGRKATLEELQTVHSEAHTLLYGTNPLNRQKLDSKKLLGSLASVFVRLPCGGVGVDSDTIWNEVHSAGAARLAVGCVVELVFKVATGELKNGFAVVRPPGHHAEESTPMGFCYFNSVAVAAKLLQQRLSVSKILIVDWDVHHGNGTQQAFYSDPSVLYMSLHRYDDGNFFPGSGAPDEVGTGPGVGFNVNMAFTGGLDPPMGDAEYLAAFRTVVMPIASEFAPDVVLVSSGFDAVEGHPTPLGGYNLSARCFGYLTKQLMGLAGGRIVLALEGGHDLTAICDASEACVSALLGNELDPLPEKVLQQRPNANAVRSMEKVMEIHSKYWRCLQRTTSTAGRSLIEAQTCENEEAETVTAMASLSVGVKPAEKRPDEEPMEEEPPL
T2 sequence (O15379 whole entry): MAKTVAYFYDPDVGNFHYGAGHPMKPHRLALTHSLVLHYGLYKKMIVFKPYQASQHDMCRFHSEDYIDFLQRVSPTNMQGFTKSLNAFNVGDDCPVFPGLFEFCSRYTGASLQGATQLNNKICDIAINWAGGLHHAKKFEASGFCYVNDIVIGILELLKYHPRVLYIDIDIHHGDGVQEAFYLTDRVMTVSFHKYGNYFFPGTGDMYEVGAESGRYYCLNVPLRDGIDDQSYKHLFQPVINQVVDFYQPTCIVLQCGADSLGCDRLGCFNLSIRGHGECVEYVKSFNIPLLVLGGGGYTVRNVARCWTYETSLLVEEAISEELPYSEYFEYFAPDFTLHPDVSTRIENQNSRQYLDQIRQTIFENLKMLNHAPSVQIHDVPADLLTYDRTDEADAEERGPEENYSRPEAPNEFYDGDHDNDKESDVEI
T2 sequence (Q9Y618 395-489 partner limits assumed): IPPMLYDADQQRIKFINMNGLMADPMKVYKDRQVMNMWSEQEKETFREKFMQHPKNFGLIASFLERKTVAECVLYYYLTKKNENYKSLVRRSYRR
T3 sequence (Q9UKV0 604-1066 isoform Q9UKV0-5): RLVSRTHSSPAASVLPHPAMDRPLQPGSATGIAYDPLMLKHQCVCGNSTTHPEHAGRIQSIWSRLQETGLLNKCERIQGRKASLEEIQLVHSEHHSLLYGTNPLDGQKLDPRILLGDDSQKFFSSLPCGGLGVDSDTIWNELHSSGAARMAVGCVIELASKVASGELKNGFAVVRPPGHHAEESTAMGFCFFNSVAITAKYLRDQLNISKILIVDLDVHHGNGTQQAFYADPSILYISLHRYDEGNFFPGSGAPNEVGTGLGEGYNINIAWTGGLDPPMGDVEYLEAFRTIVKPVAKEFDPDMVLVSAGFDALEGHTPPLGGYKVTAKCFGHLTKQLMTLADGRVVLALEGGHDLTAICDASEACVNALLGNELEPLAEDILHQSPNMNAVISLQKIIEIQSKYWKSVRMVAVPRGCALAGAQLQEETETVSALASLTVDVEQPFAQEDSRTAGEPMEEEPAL

Regarding `O=C(c1cnnc(N(Cc2ccc(-c3noc(C(F)(F)F)n3)s2)c2cnccn2)c1)N1CCCC1` [Example EA, N-(Pyrazin-2-yl)-5-(pyrrolidine-1-carbonyl)-N-({5-[5-(trifluoromethyl)-1,2,4-oxadiazol-3-yl]thiophen-2-yl}methyl)pyridazin-3-amine], the 50% inhibitory concentration (IC50) was not above 10000 nM on Human HDAC4, not above 10000 nM in test [1], not above 10000 nM at Human HDAC9 and not above 500 nM on Recombinant human HDAC6 (setting [2]).
Turning to `O=C(c1cnnc(N(Cc2ccc(-c3noc(C(F)(F)F)n3)s2)c2cnccn2)c1)N1CCOCC1` [Example EB, 5-(Morpholine-4-carbonyl)-N-(pyrazin-2-yl)-N-({5-[5-(trifluoromethyl)-1,2,4-oxadiazol-3-yl]thiophen-2-yl}methyl)pyridazin-3-amine], the IC50 is not above 10000 nM at Human HDAC4; more than 10000 nM in test [1]; not above 10000 nM at Human HDAC9; not above 500 nM on Recombinant human HDAC6 (setting [2]); 99.1 nM on Recombinant human HDAC6 (With assay conditions in the experimental section described herein, read-out: HDAC6 IC50).
Consider `CN1CCN(C(=O)c2cnnc(N(Cc3ccc(-c4noc(C(F)(F)F)n4)s3)c3cnccn3)c2)CC1` [Example EC, 5-(4-Methylpiperazine-1-carbonyl)-N-(pyrazin-2-yl)-N-({5-[5-(trifluoromethyl)-1,2,4-oxadiazol-3-yl]thiophen-2-yl}methyl)pyridazin-3-amine], for which the concentration for half-maximal inhibition (IC50) at Human HDAC4 is not above 10000 nM; in test [1], more than 10000 nM; on Human HDAC9 it was not above 10000 nM; at Recombinant human HDAC6 (setting [2]), not above 500 nM.
With `O=C(c1cnnc(N(Cc2ccc(-c3noc(C(F)(F)F)n3)s2)c2cnccn2)c1)N1CCS(=O)(=O)CC1` [Example ED, 4-{6-[(Pyrazin-2-yl)({5-[5-(trifluoromethyl)-1,2,4-oxadiazol-3-yl]thiophen-2-yl}methyl)amino]pyridazine-4-carbonyl}-1λ^6-thiomorpholine-1,1-dione], the half-maximal inhibitory concentration (IC50) at Human HDAC4 was not above 10000 nM; in test [1], more than 10000 nM; on Human HDAC9, not above 10000 nM; at Recombinant human HDAC6 (setting [2]), not above 500 nM.
For the compound `N#Cc1cnnc(N(Cc2ccc(-c3noc(C(F)(F)F)n3)s2)c2cnccn2)c1` [Example EE, 6-[(Pyrazin-2-yl)({5-[5-(trifluoromethyl)-1,2,4-oxadiazol-3-yl]thiophen-2-yl}methyl)amino]pyridazine-4-carbonitrile], the IC50 on Human HDAC4 was not above 10000 nM; in test [1], more than 10000 nM; at Human HDAC9, not above 10000 nM; on Recombinant human HDAC6 (setting [2]) it was not above 500 nM.
Regarding `FC(F)(F)c1cnnc(N(Cc2ccc(-c3noc(C(F)(F)F)n3)s2)c2cnccn2)c1` [Example EF, N-(Pyrazin-2-yl)-5-(trifluoromethyl)-N-({5-[5-(trifluoromethyl)-1,2,4-oxadiazol-3-yl]thiophen-2-yl}methyl)pyridazin-3-amine], the half-inhibitory concentration (IC50) on Human HDAC4 was not above 10000 nM; in test [1], more than 10000 nM; at Human HDAC9, not above 10000 nM; on Recombinant human HDAC6 (setting [2]), not above 500 nM.
`O=C(O)c1cnnc(N(Cc2ccc(-c3noc(C(F)(F)F)n3)s2)c2cc(C(F)(F)F)cnn2)c1` [Example ES, 6-[({5-[5-(Trifluoromethyl)-1,2,4-oxadiazol-3-yl]thiophen-2-yl}methyl)[5-(trifluoromethyl)pyridazin-3-yl]amino]pyridazine-4-carboxylicacid]: the IC50 is not above 10000 nM at Human HDAC4, more than 10000 nM in test [1], more than 10000 nM on Human HDAC9 and not above 500 nM on Recombinant human HDAC6 (setting [2]).
As for `O=C(O)c1ccc(N(Cc2sc(-c3noc(C(F)(F)F)n3)cc2F)c2cnccn2)nn1` [Example EZ, 6-[({3-Fluoro-5-[5-(trifluoromethyl)-1,2,4-oxadiazol-3-yl]thiophen-2-yl}methyl)(pyrazin-2-yl)amino]pyridazine-3-carboxylic acid], the IC50 on Human HDAC4 was not above 10000 nM; in test [1] it was more than 10000 nM; at Human HDAC9 it was not above 10000 nM; on Recombinant human HDAC6 (setting [2]), not above 10000 nM.
With `O=C(O)c1cnnc(N(Cc2sc(-c3noc(C(F)(F)F)n3)cc2F)c2cnccn2)c1` [Example FA, 6-[({3-fluoro-5-[5-(trifluoromethyl)-1,2,4-oxadiazol-3-yl]thiophen-2-yl}methyl)(pyrazin-2-yl)amino]pyridazine-4-carboxylic acid], the IC50 is not above 10000 nM on Human HDAC4, not above 10000 nM in test [1], not above 10000 nM on Human HDAC9 and not above 500 nM at Recombinant human HDAC6 (setting [2]).
In the case of `CNC(=O)c1ccc(N(Cc2ccc(-c3noc(C(F)(F)F)n3)s2)c2cnccn2)nn1` [Example FC, N-Methyl-6-[(pyrazin-2-yl)({5-[5-(trifluoromethyl)-1,2,4-oxadiazol-3-yl]thiophen-2-yl}methyl)amino]pyridazine-3-carboxamide], the IC50 was not above 1000 nM at Human HDAC4, not above 10000 nM in test [1], not above 10000 nM on Human HDAC9 and not above 500 nM on Recombinant human HDAC6 (setting [2]).
Consider `O=C(c1ccc(N(Cc2ccc(-c3noc(C(F)(F)F)n3)s2)c2cnccn2)nn1)N1CC[S+]([O-])CC1` [Example FD, 4-{6-[(Pyrazin-2-yl)({5-[5-(trifluoromethyl)-1,2,4-oxadiazol-3-yl]thiophen-2-yl}methyl)amino]pyridazine-3-carbonyl}-1lambda4-thiomorpholin-1-one], for which the concentration for half-maximal inhibition (IC50) was not above 500 nM at Human HDAC4, not above 10000 nM in test [1], not above 10000 nM on Human HDAC9 and not above 500 nM at Recombinant human HDAC6 (setting [2]).
On to `O=C(c1ccc(N(Cc2ccc(-c3noc(C(F)(F)F)n3)s2)c2cnccn2)nn1)N1C[C@@H]2C[C@H]1CO2` [Example FE, 6-[(1S,4S)-2-Oxa-5-azabicyclo[2.2.1]heptane-5-carbonyl]-N-(pyrazin-2-yl)-N-({5-[5-(trifluoromethyl)-1,2,4-oxadiazol-3-yl]thiophen-2-yl}methyl)pyridazin-3-amine], for which the half-maximal inhibitory concentration (IC50) is not above 500 nM at Human HDAC4, not above 10000 nM in test [1], not above 10000 nM at Human HDAC9 and not above 500 nM at Recombinant human HDAC6 (setting [2]).
